Measurements reported in patent EP0552417B1, “Cyclic peptides and use thereof” (priority 1991, dated 1993).
Non-standard residues stand in square brackets, D forms with d. Residues, ends and D or L forms follow the SMILES beside them. *: point of attachment. 1Nal = N[C@@H](Cc1cccc2ccccc12)C(=O)O; Bn = c1ccc(C*)cc1

Key:
[1] = molecular target: T1, endothelin receptor A (ETA) (Sus scrofa, UniProt Q29010); test: Assay of affinity for receptor (1): binding activity on ETA receptor, 125I-labeled endothelin-1, porcine heart membrane fraction; parameters: key: relative specific activity; reference cyclic pentapeptide ETA binding = 1.0; conditions: specific activity, taking the binding activity of control cyclo[-D-Glu-Ala-D-aIle-Leu-D-Trp-] on receptor A as 1.0, 25°C, 1 hour
T1 construct: A membrane fraction prepared from the porcine heart; from tissue; host or cells: porcine heart membrane fraction
T1 sequence (Q29010 21-427): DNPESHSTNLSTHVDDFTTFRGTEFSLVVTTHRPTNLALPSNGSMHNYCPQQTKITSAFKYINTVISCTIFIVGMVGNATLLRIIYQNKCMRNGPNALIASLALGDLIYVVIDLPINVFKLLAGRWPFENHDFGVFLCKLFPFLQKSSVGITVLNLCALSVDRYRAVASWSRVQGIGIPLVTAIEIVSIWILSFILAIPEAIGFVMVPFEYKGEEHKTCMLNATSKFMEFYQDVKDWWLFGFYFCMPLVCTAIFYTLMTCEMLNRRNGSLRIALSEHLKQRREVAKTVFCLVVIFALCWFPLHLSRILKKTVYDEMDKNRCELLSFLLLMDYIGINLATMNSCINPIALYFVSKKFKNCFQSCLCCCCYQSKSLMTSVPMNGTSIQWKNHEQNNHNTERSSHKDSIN
How it was run: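 Porcine heart membranes (0.15 mg/ml) incubated with 125I-endothelin-1 and test peptide for 1 h at 25°C, then centrifuged; pellet-bound radioactivity counted by gamma counter. Values given as specific activity relative to reference cyclo[-D-Glu-Ala-D-aIle-Leu-D-Trp-], set at 1.0.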

ETB = ETB radio receptor assay *2, 125I-endothelin-1, guinea pig kidney crude membrane fraction; assay type: binding, Guinea pigs; conditions: relative activity, 37 °C, 90 minutes
How it was run: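 Radioligand binding used crude guinea pig kidney membranes (2.1 µg protein) with 740 Bq 125I-endothelin-1. Incubation was 90 min at 37 °C in 50 mM Tris-HCl pH 7.4, 0.1 mM PMSF, 1 mM EDTA, 0.2% BSA. Bound radioactivity was collected by GF/B filtration and measured by gamma counting.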

| Binding Activity on ET Receptor (R. act.) ETA [1] | Binding Activity on ET Receptor (R. act.) ETB*2 (ETB) | SMILES |
| --- | --- | --- |
| 76 | 100 | CC(C)C[C@@H]1NC(=O)[C@@H](CC(C)C)NC(=O)[C@H](CC(=O)O)NC(=O)[C@H](Cc2c[nH]c3ccccc23)NC(=O)[C@@H](CC(=O)O)NC(=O)[C@@H](Cc2c[nH]c3ccccc23)NC1=O [Example 8, cyclo[-D-Asp-Trp-Asp-D-Leu-Leu-D-Trp-]] (cyclo(D[dL]L[dW][dD]W)) |
| 8.3 | 7.7 | CC(C)C[C@@H]1NC(=O)[C@@H](CC(C)C)NC(=O)[C@H](CC(=O)O)NC(=O)[C@H](Cc2cccc3ccccc23)NC(=O)[C@@H](CC(=O)O)NC(=O)[C@@H](Cc2c[nH]c3ccccc23)NC1=O [Example 23, Cyclo[-D-Asp-Nal(1)-Asp-D-Leu-Leu-D-Trp-]] (cyclo([1Nal]D[dL]L[dW][dD])) |
| 20 | 44 | CC(C)C[C@@H]1NC(=O)[C@@H](CC(C)C)NC(=O)[C@H](CCC(=O)O)NC(=O)[C@H](Cc2c[nH]c3ccccc23)NC(=O)[C@@H](CC(=O)O)NC(=O)[C@@H](Cc2c[nH]c3ccccc23)NC1=O [Example 34, Cyclo[-D-Asp-Trp-Glu-D-Leu-Leu-D-Trp-]] (cyclo(E[dL]L[dW][dD]W)) |

Second part, the molecule before the results:

| SMILES | Binding Activity on ET Receptor (R. act.) ETA [1] | Binding Activity on ET Receptor (R. act.) ETB*2 (ETB) |
| --- | --- | --- |
| CC(C)C[C@@H]1NC(=O)[C@@H](CC(C)C)NC(=O)[C@@H]2CCCN2C(=O)[C@H](Cc2c[nH]c3ccccc23)NC(=O)[C@@H](CC(=O)O)NC(=O)[C@@H](Cc2c[nH]c3ccccc23)NC1=O [Example 36, Cyclo[-D-Asp-Trp-Pro-D-Leu-Leu-D-Trp-]] (cyclo(L[dW][dD]WP[dL])) | 17 | 42 |
| CC(C)C[C@@H]1NC(=O)[C@@H](CC(C)C)NC(=O)[C@H](CO)NC(=O)[C@H](Cc2c[nH]c3ccccc23)NC(=O)[C@@H](CC(=O)O)NC(=O)[C@@H](Cc2c[nH]c3ccccc23)NC1=O [Example 37, Cyclo[-D-Asp-Trp-Ser-D-Leu-Leu-D-Trp-]] (cyclo(L[dW][dD]WS[dL])) | 24 | 18 |
| CC(C)C[C@@H]1NC(=O)[C@H](Cc2c[nH]c3ccccc23)NC(=O)[C@@H](CC(=O)O)NC(=O)[C@@H](Cc2c[nH]c3ccccc23)NC(=O)[C@H](CC(C)C)NC(=O)[C@@H](CC(C)C)NC1=O [Example 35, Cyclo[-D-Asp-Trp-Leu-D-Leu-Leu-D-Trp-]] (cyclo(L[dL]L[dW][dD]W)) | 9.1 | 24 |
| CC(C)C[C@@H]1NC(=O)[C@@H](CC(C)C)NC(=O)[C@H](COCc2ccccc2)NC(=O)[C@H](Cc2c[nH]c3ccccc23)NC(=O)[C@@H](CC(=O)O)NC(=O)[C@@H](Cc2c[nH]c3ccccc23)NC1=O [Example 38, Cyclo[-D-Asp-Trp-Ser(Bzl)-D-Leu-Leu-D-Trp-]] (cyclo(L[dW][dD]WS(Bn)[dL])) | 13 | 170 |
